Experimental data: publication PMC8864869, “A short peptide derived from pigment epithelial-derived factor exhibits an angioinhibitory effect” (BMC Ophthalmology, 2022)
Several values for one entry are separate records, joined by “and”; a condition that tells them apart may be missing. Equal values may be shown once.

Columns and labels:
[1] = test system: JNK; experiment: Western blot of phosphorylated JNK in RPMI8226 cells; assay type: cell-based, human; settings: 10 ng/ml VEGF + 25 μM 7-mer
Description: (§1) Cell lysis and SDS–PAGE were as described previously. Antibodies used in this study were for active p38 MAPK and active JNK (Promega, Madison, WI), p38 MAPK/SAPK2, JNK (Upstate Biotechnology, Lake Placid, NY), p53 (Chemicon, Temecula, CA), bax, p21, cleaved caspase-3 and β-actin (Abcam Ltd., Cambridge, UK). Proteins of interest were detected using the appropriate IgG-horseradish peroxidase-linked secondary antibody (Santa Cruz Biotechnology) and enhanced chemiluminescence reagent (Amersham, Arlington Heights, IL). X-ray films were scanned on a model GS-700 Imaging Densitometer (Bio-Rad, Hercules, CA) and analyzed with Labworks 4.0 software. For quantification, blots from at least three independent experiments were used.
Fig. 3 The 7-mer induces JNK signaling to trigger RPMI8226 cell apoptosis. 3 × 10^5 cells were serum starved for 24 h and then exposed to 10 ng/ml VEGF and 25 μM 7-mer for the indicated time periods. a Western blotting was performed to detect the active phosphorylated forms of JNK (p-JNK) and p38 MAPK (p-p38), shown in the upper panels. Antibodies were then stripped and the blots were re-incubated with anti-JNK and anti-p38 MAPK antibodies (lower panels), respectively, to detect the levels of total JNK and p38 MAPK. b Densitometric analyses from three independent experiments are shown. c Cell were pretreated with 10 μM SP600125 or SB203580 for 10 min and then treated as described above for 24 h and apoptosis was quantified using the annexin V-FITC apoptosis detection kit. *P < 0.0001 versus 7-mer-treated cells

[2] = test system: rat aortic ring; experiment: Rat aortic ring assay; settings: 100 μM 7-mer, 5 days
Description: Thoracic aortas were removed from euthanized 10-week-old male Sprague Dawley rats and gently stripped of periaortic fibroadipose tissue. Aortas were sectioned into ~ 1 mm length rings, being manipulated in Medium 200. Matrigel (120 μl) mixed with 24 μl LSGS, 72 μl medium, 200 ng/ml VEGF and 100 μM 7-mer was used to embed the aortic ring and then polymerized in 12-well plates (37 °C for 30 min). Subsequently, 1 ml culture medium supplemented with 100 units/ml penicillin, and […] was added. The cultures were propagated at 37 °C in a humidified incubator for up to 5 days. Sprouts were recorded using an inverted microscope platform (Leica DMI6000B) with bright-field optics. Each ring was scored by three independent observers on a scale 0–3, depending on the degree of vessel sprouting observed (0 = no sprouting, 3 = profuse sprouting).
Fig. 6 The effect of the 7-mer on VEGF-induced microvessel sprouting of aortic ring and corneal neovascularization. a Rat aortic ring assay. Photomicrographs of aortic ring explants after treatment for 5 days (magnification × 40). Sprouting was evaluated on a scale from 0 (no sprouts) to 3 (profuse sprouting). There was no sprouting of vessels from ex vivo aortic rings embedded in Matrigel without LSGS or VEGF. b The 7-mer inhibits VEGF-induced corneal angiogenesis in C57BL/6 mice. […]

[3] = test system: VEGF-induced corneal neovascularization; experiment: Mouse corneal micropocket assay; assay type: in vivo; settings: C57BL/6 mice, pellet with 200 ng VEGF + 2.5 μg 7-mer, day 7
Description: The assay was performed according to procedures described previously. Briefly, corneal micropockets were created in 6-week-old C57BL/6 mice with the needle of 1-ml injector. A micropellet of sucrose aluminum sulfate and hydron polymer containing 200 ng VEGF, with or without 2.5 μg 7-mer peptide, was delivered into each corneal pocket. Eyes were photographed by a slit-lamp biomicroscope on day 7 after micropellet implantation. Ingrowth of the blood vessels into the avascular cornea, towards the pellet, was scored as a positive response. The results are reported as the fraction of positive corneas of the total implanted.
Fig. 6 The effect of the 7-mer on VEGF-induced microvessel sprouting of aortic ring and corneal neovascularization. a Rat aortic ring assay. Photomicrographs of aortic ring explants after treatment for 5 days (magnification × 40). Sprouting was evaluated on a scale from 0 (no sprouts) to 3 (profuse sprouting). There was no sprouting of vessels from ex vivo aortic rings embedded in Matrigel without LSGS or VEGF. b The 7-mer inhibits VEGF-induced corneal angiogenesis in C57BL/6 mice. Representative corneas and final scoring determining the number of positive corneas per total implantations. […]

[4] = test system: RPMI8226 cells; assay type: cell-based, human
Description: Human multiple myeloma cells, RPMI8226 were purchased from Bioresource Collection and Research Center (Hsinchu, Taiwan). Cells were cultivated in RPMI1640 medium supplemented with 10% FBS, 50 μg/ml penicillin, 50 μg/ml streptomycin, and 2 mM L-glutamine at 37 °C in a 5% CO2 atmosphere. Cell viability was determined by an MTT assay. […] MTT stock solution added to medium alone was included as a negative control. Aliquots (450 μl) from each sample were transferred to a new well of a 48-well culture plate, 100 μl DMSO added with thorough mixing, and allowed to react at 37 °C for 20 min before reading the absorbance at 570 nm.

[5] = test system: p53, Bax, p21, cleaved caspase-3; experiment: Western blot of p53, Bax, p21 and cleaved caspase-3 in RPMI8226 cells; assay type: cell-based, human
Description: as §1
Fig. 4 The 7-mer induces JNK signaling to trigger p53/bax/p21^Waf1 expression in RPMI8226 cells. a and b Cell treatments were as described in Fig. 3. Cell lysates were then prepared for western blot analysis of p53, Bax, and p21. Representative blots and densitometric analyses from three independent experiments are shown. ^*P < 0.001 versus 7-mer-treated cells

[6] = 7-mer for 8 h, VEGF-treated RPMI8226 cells, densitometry, three independent experiments

## 7-mer: PEDF Asp64-Ser70, N-acetylated, C-amidated (Ac-DLYRVRS-NH2; UniProt P36955 64-70, looked up, fragment)
[1]
  time for which JNK phosphorylation was sustained: up to 10 h
  time of peak p-p46 JNK: 2 h
[1]; time course
  p-p46 JNK phosphorylation: increase in p-p46 JNK was detected 20 min after 7-mer treatment
[2]; 200 ng/ml VEGF, P = 0.001
  VEGF-induced outgrowth of sprouts from aortic rings: this outgrowth was suppressed
[2]; LSGS + 200 ng/ml VEGF
  sprouts of aortic rings exposed to LSGS and VEGF: blocked by the 7-mer
[3]
  VEGF-induced neovessels in the corneas: prevented by the 7-mer
[3]; vehicle 10/12
  Positive Corneas /Total: 0/8
[4]
  cytotoxic effect on RPMI8226 cells in the absence of VEGF: neither peptide had a significant cytotoxic effect
[4]; 10 ng/ml VEGF + 1 μM peptide (lowest concentration), 24 h, mean ± SD
  MTT value, VEGF-induced RPMI8226 cell proliferation, 1 μM peptide: 101 ± 1.2%
[4]; 10 ng/ml VEGF + 25 μM peptide, 24 h
  anti-VEGF activity of the 7-mer relative to the 34-mer (MTT): ~ 1.5 fold
[4]; 10 ng/ml VEGF + 25 μM peptide, 24 h, serum-free medium, solvent-treated/untreated cells set as 100%, mean ± SD, three independent experiments
  MTT value, VEGF-induced RPMI8226 cell proliferation: 58 ± 4.1% and 57.3% and 54 ± 1.5%
[4]; 1, 5, 10 and 25 μM peptide with VEGF, MTT
  dose dependence of cell viability of VEGF-treated RPMI8226 cells: decreased cell viability in a dose-dependent manner
[5]; [6]
  Bax protein level compared to solvent control: 4.5 ± 0.40 fold
  p21Waf1 protein level compared to solvent control: 5.5 ± 0.43 fold
  p53 protein level compared to solvent control: 3.6 ± 0.39 fold
[5]; 7-mer treatment for 24 h
  cleaved/active caspase-3: elevation of cleaved/active caspase-3
